Measurements published in patent US8877766B2, “Neuroprotective multifunctional antioxidants and their monofunctional analogs” (priority 2013, dated 2014).

Columns and labels:
[1] = tested on: SH-SY5Y neuroblastoma cells; assay: Superoxide assay, MitoSOX Red, xanthine oxidase generated superoxide; assay type: cell-based, human; conditions: xanthine oxidase 25 mU/mL
Description: The ability of the HK series of multifunctional and monofunctional antioxidant compounds to specifically reduce superoxide radicals in live cells was assessed in both SH-SY5Y neuroblastoma cells and ARPE-19 retinal pigmented epithelial cells. The production of superoxide by mitochondria was visualized with fluorescence microscopy using the MitoSOX™ Red reagent (Invitrogen Life Sciences, Grand Island, N.Y.), which permeates live cells, where it selectively targets mitochondria. It is rapidly oxidized by superoxide, but not by other reactive oxygen species (ROS) and reactive nitrogen species (RNS). The oxidized product is highly fluorescent upon binding to nucleic acid. […] The cell media was then removed from each well, and the wells were washed with PBS. Compounds (HK series and JHX series and antioxidant standards (Hydroquinone (HQ), Trolox (T), Vitamin E (VE), Vitamin C (VC)) dissolved in DMSO (10 μL) were then added to each well, along with fresh media (140 μL) without serum albumin (FBS). Superoxide dismutase (SOD, 500 μg/mL, 10 μL) was used as an additional control, and cells in all groups (controls, drug treated, and SOD treated groups) were exposed to the same amounts of DMSO. After addition, the cells were incubated at 37° C. under a 5% CO2 atmosphere for 1 hr. Xanthine oxidase (XO), was then added (25 mU/mL) to generate approximately 100 μM superoxide, and culture continued for an additional hour. The media was then again removed, and the cells were washed with PBS. Finally, the cells were stained with 100 μL of the MitoSOX Red reagent (5 μM), and 2 hr after further incubation, the fluorescence of each well was measured using fluorescent microplate reader at Ex/Em=510/580 nm.

[2] = tested on: SH-SY5Y neuroblastoma cells; assay: Cell viability study, MTS Cell Titer 96 Aqueous One Solution assay; conditions: 1 mM compound in 0.16% DMSO
Description: The in vitro cell viability studies were conducted as previously described using SH-SY5Y neuroblastoma cells (ATCC) and cultured according to ATCC procedures in 1:1 Eagles minimum essential medium with Earle's balanced salt solution and Ham's F12 (EMEM-F12) media containing (10% fetal bovine serum (FBS)) at 37° C. under a 5% CO2 atmosphere. Cell viability studies were conducted over a 24 hour period in 96-well plates using the Cell Titer 96® Aqueous One Solution Cell Proliferation Assay (MTS, Promega, Madison, Wis.) with 1 mM of each compound or clioquinol (PBT1) dissolved in 0.16% DMSO. […] This is a colorimetric method for determining the number of viable cells in proliferation or cytotoxicity assays where the One Solution contains MTS (3-(4,5-dimethylthiazol-2-yl)-5-(3-carboxymethoxyphenyl)-2-(4-sulfophenyl)-2H-tetrazolium), in the presence of phenazine methosulfate (PMS). The MTS compound is bioreduced by cells into a colored formazan product and, as measured by the amount of 490 nm absorbance, is directly proportional to the number of living cells in culture. […] The protective effect of these compounds against H2O2 and hydroxyl radical generated by the Fenton reaction were examined.

[3] = tested on: SH-SY5Y neuroblastoma cells; assay: LIVE/DEAD Viability/Cytotoxicity Assay, hydroxyl radical (Fenton reagent) induced cell death; assay type: cell-based, human; conditions: 2 hours exposure to Fenton reagent
Description: (§1) The ability of the HK series of multifunctional antioxidant compounds to specifically protect against hydroxyl radical-induced cell death was assessed in both SH-SY5Y neuroblastoma cells and ARPE-19 retinal pigmented epithelial cells using the LIVE/DEAD® Viability/Cytotoxicity Assay (Invitrogen Life Sciences, Grand Island, N.Y.). The cells were seeded into 96-well plates and grown in standard media (1:1 EMEM-F12 media containing 10% FBS for the human SH-SY5Y neuroblastoma cells, or DMEM containing 4% FBS for the human ARPE-19 retinal pigmented epithelial cells), at 37° C. under a 5% CO2 atmosphere until 80% confluence was achieved (ca. 24 hr). The media was then removed, and the cells were washed with PBS. Compounds (HK series and JHX series or antioxidant standards (Hydroquinone (HQ), Trolox (T), Vitamin E (VE), Vitamin C (VC)) dissolved in DMSO (10 μL) were again added to the cells, along with the appropriate media without FPS. Following a 1 hr incubation at 37° C. under a 5% CO2 atmosphere, Fenton reagents (Fe^2+ and hydrogen peroxide dissolved in appropriate media without FBS to give a final concentration of 100 μM) were added to each well, and incubation continued. After 2 hr of incubation with Fenton reagent, the media was removed and the cells were washed with PBS. The cells were stained with 100 μL of the LIVE/DEAD reagent containing calcein AM (AM, 8 μM for NB) and ethidium homodimer-1 (EthD-1, 16 μM for NB) for 1 hr at 37° C. The fluorescence of each well was measured using a fluorescent microplate reader at Ex/Em=494/517 nm (Fsam for LIVE Cells) and Ex/Em=528/617 nm (Fsam for DEAD Cells). The fluorescence of control samples was also measured as follows: Fmax for LIVE Cells (The fluorescence at Ex/Em=494/517 nm in live cells samples labeled with AM only); Fmin for LIVE Cells (The fluorescence at Ex/Em=494/517 nm in live cells samples labeled with EthD-1 only); Fmax for DEAD Cells (The fluorescence at Ex/Em=528/617 nm in dead cells samples labeled with EthD-1 only); Fmin for DEAD Cells (The fluorescence at Ex/Em=528/617 nm in dead cells samples labeled with AM only); Blank 494/517 (The fluorescence at Ex/Em=494/517 nm without dye and cells); Blank 528/617 (The fluorescence at Ex/Em=528/617 nm without dye and cells). For the dead cells control, the cells were incubated with 70% of ethanol for 30 min at 37° C. The percentage of live cells was calculated from the fluorescence readings using the equation
(§2) [formula] The percentage of dead cells was calculated from the fluorescence readings using the equation: […]

[4] = tested on: ARPE-19 retinal pigmented epithelial cells; assay: as above; assay type: cell-based, human; conditions: ARPE-19, 2 hours exposure to Fenton reagent
Description: as §1, §2

| Structure (SMILES) | reduction of superoxide radical [1] | decrease in 24 hr cell viability compared to DMSO treated cells [2] | protection against hydroxyl radicals (live/dead cells) [3] | protection against hydroxyl radical (live/dead cells) [4] |
| --- | --- | --- | --- | --- |
| O=C1CCC(=O)N1c1ncccn1 [HK-1, 1-(2-pyrimidyl)pyrrolidine-2,5-dione] | did not |  |  |  |
| O=C1CCC(=O)N1c1ncc(O)cn1 [HK-2, 1-(5-hydroxy-2-pyrimidyl)pyrrolidine-2,5-dione] |  | approximately 20% |  |  |
| COc1cc(OC)nc(N2C(=O)CCC2=O)n1 [HK-3, 1-(4,6-dimethoxy-2-pyrimidyl)pyrrolidine-2,5-dione] | did not |  |  |  |
| O=C1CCCC(=O)N1c1ncccn1 [HK-5, 1-(2-pyrimidyl)piperidine-2,6-dione] | did not |  |  |  |
| O=C1CCCC(=O)N1c1ncc(O)cn1 [HK-6, 1-(5-hydroxy-2-pyrimidyl)piperidine-2,6-dione] |  | approximately 20% |  |  |
| COc1cc(OC)nc(N2C(=O)CCCC2=O)n1 [HK-7, 1-(4,6-dimethoxy-2-pyrimidyl)piperidine-2,6-dione] | did not |  |  |  |
| COc1nc(N2C(=O)CCCC2=O)nc(OC)c1O [HK-8, 1-(4,6-dimethoxy-5-hydroxy-2-pyrimidyl)piperidine-2,6-dione] |  | 30% |  |  |
| c1cnc(N2CCCC2)nc1 [HK-9, 2-(pyrrolidine-1-yl)pyrimidine] | no effect |  | no effect |  |
| Oc1cnc(N2CCCC2)nc1 [HK-10, 5-hydroxy-2-(pyrrolidine-1-yl)pyrimidine] | demonstrated protection |  |  | dose-dependent protection |
| COc1cc(OC)nc(N2CCCC2)n1 [HK-11, 4,6-dimethoxy-2-(pyrrolidine-1-yl)pyrimidine] | no effect |  | no effect |  |
| COc1nc(N2CCCC2)nc(OC)c1O [HK-12, 5-hydroxy-4,6-dimethoxy-2-(pyrrolidine-1-yl)pyrimidine] | demonstrated protection |  |  | dose-dependent protection |
| Oc1cnc(N2CCCCC2)nc1 [HK-14, 5-hydroxy-2-(piperidine-1-yl)pyrimidine] | demonstrated protection |  |  | dose-dependent protection |
| COc1nc(N2CCCCC2)nc(OC)c1O [HK-16, 5-hydroxy-4,6-dimethoxy-2-(piperidine-1-yl)pyrimidine] | demonstrated protection |  |  | dose-dependent protection |
| Cc1c(C)c2c(c(C)c1O)CCC(C)(C(=O)O)O2 (centres unmarked) [Trolox, reference compound] |  | approximately 20% |  |  |
